In patent publication US11725036B2, “Modified lipidated relaxin B chain peptides and their therapeutic use” (Sanofi, priority 2018, dated 2023):
Starred links: 1 amine or outer side, 2 acyl side, 3 side chain; linkers in the order of their positions; H or OH if unused. Non-standard residues stand in square brackets, D forms with d. Residues, ends and D or L forms follow the SMILES beside them. Groups on a side chain read outwards from the residue. *: point of attachment. X12 = CCCCCCCCCCCCCCCCCC(=O)N[C@@H](CCC(=O)N[C@@H](CCC(=O)N[C@@H](CCC(=O)N[C@@H](CCC(=O)NCCCOCCOCCOCCCNC(=O)CCC(=O)NCCCOCCOCCOCCCNC(=O)CCC(=O)NCCCOCCOCCOCCCNC(=O)CCC(=O)NCCCOCCOCCOCCCN*)C(=O)O)C(=O)O)C(=O)O)C(=O)O; X1 = CCCCCCCCCCCCCCCC(=O)N[C@@H](CCC(=O)N[C@@H](CCC(=O)N[C@@H](CCC(=O)NCCCOCCOCCOCCCNC(=O)CCC(=O)NCCCOCCOCCOCCCNC(=O)CCC(=O)NCCCOCCOCCOCCCN*)C(=O)O)C(=O)O)C(=O)O; X4 = CCCCCCCCCCCCCCCCCC(=O)N[C@@H](CCC(=O)N[C@@H](CCC(=O)N[C@@H](CCC(=O)NCCCOCCOCCOCCCNC(=O)CCC(=O)NCCCOCCOCCOCCCN*)C(=O)O)C(=O)O)C(=O)O; γGlu = O=C(O)[C@H](CCC(=O)[*:2])N[*:1]; Palmitoyl = CCCCCCCCCCCCCCCC(=O)*; Suc = O=C(CCC(=O)[*:2])[*:1]; αMeK = C[C@](N)(CCCCN)C(=O)O; hLys = NCCCCC[C@H](N)C(=O)O; AEEA = NCCOCCOCC(=O)O; Aib = CC(C)(N)C(=O)O

Biological target: T1, RXFP1 (Homo sapiens, UniProt Q9HBX9)
T1 construct: OVCAR5 cells expressing endogenous RXFP1; endogenous in cells; host or cells: OVCAR5
T1 sequence (Q9HBX9 1-757): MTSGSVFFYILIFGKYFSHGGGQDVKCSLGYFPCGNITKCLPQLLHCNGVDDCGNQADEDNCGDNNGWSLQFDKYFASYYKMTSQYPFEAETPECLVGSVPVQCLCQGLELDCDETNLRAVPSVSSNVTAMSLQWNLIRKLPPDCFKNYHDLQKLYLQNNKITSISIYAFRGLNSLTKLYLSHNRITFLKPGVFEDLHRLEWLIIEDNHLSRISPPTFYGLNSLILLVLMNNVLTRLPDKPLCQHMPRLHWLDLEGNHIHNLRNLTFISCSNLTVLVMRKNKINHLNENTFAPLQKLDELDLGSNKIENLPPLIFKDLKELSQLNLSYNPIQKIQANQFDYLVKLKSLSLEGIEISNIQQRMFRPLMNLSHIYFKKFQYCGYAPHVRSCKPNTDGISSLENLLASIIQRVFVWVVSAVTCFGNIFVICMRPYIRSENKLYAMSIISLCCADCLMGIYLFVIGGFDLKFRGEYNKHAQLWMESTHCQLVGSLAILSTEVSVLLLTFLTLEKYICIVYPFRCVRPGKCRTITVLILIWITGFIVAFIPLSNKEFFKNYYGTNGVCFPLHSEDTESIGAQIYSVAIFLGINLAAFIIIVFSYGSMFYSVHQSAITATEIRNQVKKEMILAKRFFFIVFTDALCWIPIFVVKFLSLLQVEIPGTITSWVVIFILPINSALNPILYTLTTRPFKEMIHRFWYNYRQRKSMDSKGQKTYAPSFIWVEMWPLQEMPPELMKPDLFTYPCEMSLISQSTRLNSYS
Experiment: OVCAR5 cAMP assay (HTRF)
Assay type: cell-based
Conditions: for EC50: OVCAR 5 cells expressing endogenous RXFP1, cAMP readout; for Emax: OVCAR 5 cells, maximal cAMP relative to H2-relaxin
Outline: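 Peptide agonism measured as intracellular cAMP (HTRF) after 30 min at 37° C in serum-free medium, following 40 min 1 mM IBMX preincubation of OVCAR5 cells. Nonlinear regression gave EC50; Emax % = 100 × compound maximal cAMP / H2-relaxin maximal cAMP.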

Row | Compound | EC50 [nM] | Emax [%]
1 | CCCCCCCCCCCCCCCC(=O)N[C@@H](CCC(=O)N[C@@H](CCC(=O)N[C@@H](CCC(=O)NCCCOCCOCCOCCCNC(=O)CCC(=O)NCCCOCCOCCOCCCNC(=O)CCC(=O)NCCCOCCOCCOCCCNC(=O)CCC(=O)NCCCC[C@H](NC(=O)CNC(=O)[C@H](CCC(=O)O)NC(=O)C(C)(C)NC(=O)C(C)(C)NC(=O)[C@@H](NC(=O)[C@H](CCCCNC(C)=O)NC(=O)[C@H](C)NC(=O)[C@H](CCCNC(=N)N)NC(=O)[C@@H](NC(=O)[C@H](CCCCCN)NC(=O)[C@H](CCC(=O)O)NC(=O)[C@H](CCCNC(=N)N)NC(=O)CNC(=O)[C@H](CCC(=O)O)NC(=O)[C@H](CC(C)C)NC(C)=O)C(C)C)[C@@H](C)CC)C(=O)N[C@@H](CO)C(=O)N[C@H](C(=O)N[C@@H](Cc1ccccc1)C(=O)N[C@@H](CO)C(=O)N[C@@](C)(CCCCN)C(=O)N[C@@H](CCCNC(=N)N)C(=O)N[C@@H](C)C(=O)N[C@@H](CCCCNC(C)=O)C(N)=O)[C@@H](C)O)C(=O)O)C(=O)O)C(=O)O [compound 28] (Ac-LEGRE[hLys]VRAK(Ac)I[Aib][Aib]EGK([Suc-X1])STFS[αMeK]RAK(Ac)-NH2) | 0.62 | 88
2 | CCCCCCCCCCCCCCCC(=O)N[C@@H](CCC(=O)N[C@@H](CCC(=O)N[C@@H](CCC(=O)NCCOCCOCC(=O)NCCOCCOCC(=O)NCCOCCOCC(=O)NCCOCCOCC(=O)NCCCC[C@H](NC(=O)CNC(=O)[C@H](CCC(=O)O)NC(=O)C(C)(C)NC(=O)C(C)(C)NC(=O)[C@@H](NC(=O)[C@H](CCCCNC(C)=O)NC(=O)[C@H](C)NC(=O)[C@H](CCCNC(=N)N)NC(=O)[C@@H](NC(=O)[C@H](CCCCN)NC(=O)[C@H](CCC(=O)O)NC(=O)[C@H](CCCNC(=N)N)NC(=O)CNC(=O)[C@H](CCC(=O)O)NC(=O)[C@H](CC(C)C)NC(C)=O)C(C)C)[C@@H](C)CC)C(=O)N[C@@H](CO)C(=O)N[C@H](C(=O)N[C@@H](Cc1c[nH]c2ccccc12)C(=O)N[C@@H](CO)C(=O)N[C@@](C)(CCCCN)C(=O)N[C@@H](CCCNC(=N)N)C(=O)N[C@@H](C)C(=O)N[C@@H](CCCCNC(C)=O)C(N)=O)[C@@H](C)O)C(=O)O)C(=O)O)C(=O)O [compound 42] (Ac-LEGREKVRAK(Ac)I[Aib][Aib]EGK([AEEA-AEEA-AEEA-AEEA-γGlu-γGlu-γGlu-Palmitoyl])STWS[αMeK]RAK(Ac)-NH2) | 1.5 | 84
3 | CCCCCCCCCCCCCCCC(=O)N[C@@H](CCC(=O)N[C@@H](CCC(=O)N[C@@H](CCC(=O)NCCOCCOCC(=O)NCCOCCOCC(=O)NCCOCCOCC(=O)NCCOCCOCC(=O)NCCOCCOCC(=O)NCCCC[C@H](NC(=O)CNC(=O)[C@H](CCC(=O)O)NC(=O)C(C)(C)NC(=O)C(C)(C)NC(=O)[C@@H](NC(=O)[C@H](CCCCNC(C)=O)NC(=O)[C@H](C)NC(=O)[C@H](CCCNC(=N)N)NC(=O)[C@@H](NC(=O)[C@H](CCCCN)NC(=O)[C@H](CCC(=O)O)NC(=O)[C@H](CCCNC(=N)N)NC(=O)CNC(=O)[C@H](CCC(=O)O)NC(=O)[C@H](CC(C)C)NC(C)=O)C(C)C)[C@@H](C)CC)C(=O)N[C@@H](CO)C(=O)N[C@H](C(=O)N[C@@H](Cc1ccccc1)C(=O)N[C@@H](CO)C(=O)N[C@@](C)(CCCCN)C(=O)N[C@@H](CCCNC(=N)N)C(=O)N[C@@H](C)C(=O)N[C@@H](CCCCNC(C)=O)C(N)=O)[C@@H](C)O)C(=O)O)C(=O)O)C(=O)O [compound 45] (Ac-LEGREKVRAK(Ac)I[Aib][Aib]EGK([AEEA-AEEA-AEEA-AEEA-AEEA-γGlu-γGlu-γGlu-Palmitoyl])STFS[αMeK]RAK(Ac)-NH2) | 0.45 | 96
4 | CCCCCCCCCCCCCCCCCC(=O)N[C@@H](CCC(=O)N[C@@H](CCC(=O)N[C@@H](CCC(=O)NCCCOCCOCCOCCCNC(=O)CCC(=O)NCCCOCCOCCOCCCNC(=O)CCC(=O)NCCCC[C@H](NC(=O)CNC(=O)[C@H](CCC(=O)O)NC(=O)C(C)(C)NC(=O)C(C)(C)NC(=O)[C@@H](NC(=O)[C@H](CCCCNC(C)=O)NC(=O)[C@H](C)NC(=O)[C@H](CCCNC(=N)N)NC(=O)[C@@H](NC(=O)[C@H](CCCCN)NC(=O)[C@H](CCC(=O)O)NC(=O)[C@H](CCCNC(=N)N)NC(=O)CNC(=O)[C@H](CCC(=O)O)NC(=O)[C@H](CC(C)C)NC(C)=O)C(C)C)[C@@H](C)CC)C(=O)N[C@@H](CO)C(=O)N[C@H](C(=O)N[C@@H](Cc1ccccc1)C(=O)N[C@@H](CO)C(=O)NC(C)(C)C(=O)N[C@@H](CCCNC(=N)N)C(=O)N[C@@H](CCCCN)C(=O)N[C@@H](CCCCNC(C)=O)C(N)=O)[C@@H](C)O)C(=O)O)C(=O)O)C(=O)O [compound 60] (Ac-LEGREKVRAK(Ac)I[Aib][Aib]EGK([Suc-X4])STFS[Aib]RKK(Ac)-NH2) | 0.15 | 95
5 | CCCCCCCCCCCCCCCCCC(=O)N[C@@H](CCC(=O)N[C@@H](CCC(=O)N[C@@H](CCC(=O)N[C@@H](CCC(=O)NCCCOCCOCCOCCCNC(=O)CCC(=O)NCCCOCCOCCOCCCNC(=O)CCC(=O)NCCCOCCOCCOCCCNC(=O)CCC(=O)NCCCOCCOCCOCCCNC(=O)CCC(=O)NCCCC[C@H](NC(=O)CNC(=O)[C@H](CCC(=O)O)NC(=O)C(C)(C)NC(=O)C(C)(C)NC(=O)[C@@H](NC(=O)[C@H](CCCCNC(C)=O)NC(=O)[C@H](C)NC(=O)[C@H](CCCNC(=N)N)NC(=O)[C@@H](NC(=O)[C@H](CCCCN)NC(=O)[C@H](CCC(=O)O)NC(=O)[C@H](CCCNC(=N)N)NC(=O)CNC(=O)[C@H](CCC(=O)O)NC(=O)[C@H](CC(C)C)NC(C)=O)C(C)C)[C@@H](C)CC)C(=O)N[C@@H](CO)C(=O)N[C@H](C(=O)N[C@@H](Cc1c[nH]c2ccccc12)C(=O)N[C@@H](CO)C(=O)NC(C)(C)C(=O)N[C@@H](CCCNC(=N)N)C(=O)N[C@@H](CCCCN)C(=O)N[C@@H](CCCCNC(C)=O)C(N)=O)[C@@H](C)O)C(=O)O)C(=O)O)C(=O)O)C(=O)O [compound 59] (Ac-LEGREKVRAK(Ac)I[Aib][Aib]EGK([Suc-X12])STWS[Aib]RKK(Ac)-NH2) | – | 99
6 | CCCCCCCCCCCCCCCC(=O)N[C@@H](CCC(=O)N[C@@H](CCC(=O)N[C@@H](CCC(=O)NCCCOCCOCCOCCCNC(=O)CCC(=O)NCCCOCCOCCOCCCNC(=O)CCC(=O)NCCCOCCOCCOCCCNC(=O)CCC(=O)NCCCC[C@H](NC(=O)CNC(=O)[C@H](CCC(=O)O)NC(=O)C(C)(C)NC(=O)C(C)(C)NC(=O)[C@@H](NC(=O)[C@H](CCCCNC(C)=O)NC(=O)[C@H](C)NC(=O)[C@H](CCCNC(=N)N)NC(=O)[C@@H](NC(=O)[C@H](CCCCN)NC(=O)[C@H](CCC(=O)O)NC(=O)[C@H](CCCNC(=N)N)NC(=O)CNC(=O)[C@H](CCC(=O)O)NC(=O)[C@H](CCCCNC(C)=O)NC(C)=O)C(C)C)[C@@H](C)CC)C(=O)N[C@@H](CO)C(=O)N[C@H](C(=O)N[C@@H](Cc1ccccc1)C(=O)N[C@@H](CO)C(=O)N[C@@](C)(CCCCN)C(=O)N[C@@H](CCCNC(=N)N)C(=O)N[C@@H](C)C(=O)N[C@@H](CCCCNC(C)=O)C(N)=O)[C@@H](C)O)C(=O)O)C(=O)O)C(=O)O [compound 81] (Ac-K(Ac)EGREKVRAK(Ac)I[Aib][Aib]EGK([Suc-X1])STFS[αMeK]RAK(Ac)-NH2) | 0.16 | 98
7 | CCCCCCCCCCCCCCCC(=O)N[C@@H](CCC(=O)N[C@@H](CCC(=O)N[C@@H](CCC(=O)NCCCOCCOCCOCCCNC(=O)CCC(=O)NCCCOCCOCCOCCCNC(=O)CCC(=O)NCCCOCCOCCOCCCNC(=O)CCC(=O)NCCCC[C@H](NC(=O)CNC(=O)[C@H](CCC(=O)O)NC(=O)[C@@H](NC(=O)C(C)(C)NC(=O)[C@@H](NC(=O)[C@H](CCCCNC(C)=O)NC(=O)[C@H](C)NC(=O)[C@H](CCCNC(=N)N)NC(=O)[C@@H](NC(=O)[C@H](CCCCN)NC(=O)[C@H](CCC(=O)O)NC(=O)[C@H](CCCNC(=N)N)NC(=O)CNC(=O)[C@H](CCC(=O)O)NC(=O)C(C)(C)NC(C)=O)C(C)C)[C@@H](C)CC)[C@@H](C)CC)C(=O)N[C@@H](CO)C(=O)N[C@H](C(=O)N[C@@H](Cc1ccccc1)C(=O)N[C@@H](CO)C(=O)N[C@@](C)(CCCCN)C(=O)N[C@@H](CCCNC(=N)N)C(=O)N[C@@H](C)C(=O)N[C@@H](CCCCNC(C)=O)C(N)=O)[C@@H](C)O)C(=O)O)C(=O)O)C(=O)O [compound 86] (Ac-[Aib]EGREKVRAK(Ac)I[Aib]IEGK([Suc-X1])STFS[αMeK]RAK(Ac)-NH2) | 0.3 | 95
